Row | SMILES | melting point
1 | O=C1C(=O)c2ccccc2C2=C1SCC1(CCCN(C(=O)c3cccc(Cl)c3)CC1)O2 (stereo unspecified) | 98 to 100 °C
2 | COc1ccc(Cl)c(Nc2c(C#N)cnc3c2C=C2N=CN=C2C3)c1 | 296 to 298 °C
3 | Cc1ccccc1-c1ccc2c(c1)CCCc1c-2nc2ccc(F)cc2c1C(=O)O | > 300 °C
4 | c1ccc(CCN2CCN(Cc3nc4ccccc4[nH]3)CC2)cc1 | 150 to 152 °C
5 | Cn1c2ccccc2c2c(=O)[nH]ccc21 | 242 °C
6 | Cc1[nH]c(C=O)c2c1-c1ccc(Cl)cc1C(c1ccccc1Cl)=NC2 | 274 to 276 °C
7 | CCCC=CCC1CC(=O)N(c2cc(Cc3n[nH]c(=O)c4ccccc34)ccc2F)C1=O (stereo unspecified) | 146 to 149 °C
8 | CN(C)S(=O)(=O)c1ccc2c(c1)C(Cl)c1ccccc1C=C2 (stereo unspecified) | 140 to 144 °C
9 | Fc1ccc2[nH]cc(CC3CCN(CCOc4ccc5c(c4)CCC5)CC3)c2c1 | 150 to 152 °C
10 | COc1ccc(-n2nc(Sc3cc(C)ccc3C)c(C)c(C#N)c2=O)cc1 | 140 to 142 °C
11 | CCn1ncc2c3onc(-c4cccc(Cl)c4)c3cnc21 | 178 to 179 °C
12 | CC(C)(C)OC(=O)N[C@@H](Cc1ccccn1)C(=O)NCC(=O)c1ccc(-c2ccccc2)cc1 | 129 to 132 °C
13 | O=S(=O)(NCCNCC=Cc1ccc(Cl)cc1)c1cccc2cnccc12 | 120 to 123 °C
14 | C=C(C)n1cc(C(=O)O)c(=O)c2cc(F)c(N3CC[C@H](N)C3)cc21 | 249 to 255 °C
15 | CC(C)n1nc(-c2c(-c3ccccc3)nn3ccc(OCC(=O)Nc4ccccc4)cc23)ccc1=O | 208 to 209 °C
16 | CC(=O)Nc1cccc(-c2ccnc3c(C#N)cnn23)c1 | 252 to 254 °C
17 | COC(=O)CNC(=O)[C@H](CSC(c1ccccc1)(c1ccccc1)c1ccccc1)NC(=O)OC(C)(C)C | 167 to 169 °C
18 | Cn1c2ccccc2c2c(C(=O)O)c(C(=O)O)ccc21 | 294 °C
19 | CCCCCCCCCCCCNC(=O)C(CC(=O)O)Sc1nc2ccccc2s1 (stereo unspecified) | 117 to 121 °C
20 | COc1cc2cc3c4c(cccc4c2cc1OC)C(=O)OC3=O | > 324 °C
21 | O=c1n(CCCCN2CCN(c3cccc(Cl)c3)CC2)nc2n1-c1ccccc1OC2 | 132 to 134 °C
22 | CC1(C)COC(c2cc(F)c(F)c([Si](C)(C)C)c2F)=N1 | 71 to 72 °C

Row | SMILES | melting point
23 | C[C@@H]1CC=C(S(=O)(=O)c2ccccc2)[C@H](O)C1 | 79 to 81 °C
24 | NCCOc1cccc2c1c1cccc(F)c1n2Cc1ccccc1 | 122 to 123 °C
25 | CCCc1nc2c(N)nc3cccnc3c2n1CC1(O)CCOCC1 | 209 to 210 °C
26 | c1ccc(C(c2ccccc2)(c2ccns2)n2cncn2)cc1 | 235 to 240 °C
27 | O=C(C=Cc1ccccc1)Oc1ccccc1 | 114 to 116 °C
28 | CS(=O)(=O)c1nccc(Oc2ccc(NC(=O)c3cc(F)cc(N4CCOCC4)c3)c3ccccc23)n1 | 173 to 175 °C
29 | O=C(NCCCCCCCNC(=O)c1ccc(OC2CCCCC2)cc1)c1ccc(OC2CCCCC2)cc1 | 144 to 145 °C
30 | CN1Cc2c(C(=O)OC(C)(C)C)ncn2-c2ccc(F)cc2C1=O | 228 to 229 °C
31 | COc1cc(C(=O)O)ccc1OCCCCl | 154 to 156 °C
32 | COC(=O)CCc1c[nH]c2ccccc12 | 162 to 164 °C
33 | O=C1Nc2ccccc2Sc2cscc21 | 215 to 216 °C
34 | Cc1ccccc1-c1cn(-c2ccccc2)c2ncnc(N)c12 | 181 to 182 °C
35 | Cn1c([N+](=O)[O-])cnc1-c1cc(CCC(=O)O)on1 | 114 °C
36 | CC(=O)c1c2cnnc-2sn1C | 130 to 131 °C
37 | COC(=O)[C@@H]1C[C@H](NC(C)=O)C(=O)[C@H]2[C@@]1(C)CC[C@H]1C(=O)O[C@H](c3ccoc3)C[C@]21C | 222 to 224 °C
38 | N#CCc1nc(C(F)(F)F)ccc1C(=O)O | 152 to 153 °C
39 | CNc1cc(SCC(C)O)c(N)cc1[N+](=O)[O-] (stereo unspecified) | 152 °C
40 | CS(=O)(=O)N(Cc1cccnc1)c1ccccc1F | 120 °C
41 | CC(=O)OC(OC(C)=O)c1ccc([N+](=O)[O-])cc1 | 124 to 126 °C
42 | O=C1c2c(Sc3ccccc3)ccc(Sc3ccc(O)cc3)c2C(=O)c2c(Sc3ccccc3)ccc(Sc3ccc(O)cc3)c21 | > 340 °C
43 | CC(C)Cn1c(CCCCNC(=O)Nc2ccccc2)nc2c(N)nc3c(c21)CCCC3 | 197 to 199 °C
44 | CCCc1nc2cnc3cc(Br)ccc3c2n1CC1CCN(C(=O)OC(C)(C)C)CC1 | 215 to 216 °C

Row | SMILES | melting point
45 | c1nc(Nc2ccc(N3CCOCC3)cc2)cc(NC2CCCCC2)n1 | 239 to 240 °C
46 | O=C1C=CC(O)(C(F)(F)F)C=C1 | 84 to 86 °C
47 | c1ccc2c(=Nc3ccncc3)cc3oc4cc(N5CCOCC5)ccc4nc-3c2c1 | > 300 °C
48 | C(#Cc1cc2ccccc2s1)c1ccc(-c2ccccc2)s1 | 185 to 186 °C
49 | CC(C)(C)c1cc(C(=O)Nc2nc(C(N)=O)c(CCN3CC4CCC(CC4)C3)s2)cc(C(C)(C)C)c1O | 275 to 276 °C
50 | NNC(=O)c1nn(Cc2ccc(Cl)cc2Cl)c2ccccc12 | 161 to 162 °C
51 | CC(C)(C)OC(=O)NCCOc1noc2ccc(F)c(C#N)c12 | 116 to 117 °C
52 | CCCCCN1C(=O)C2(COc3cc4c(cc32)OCO4)c2c(Cl)ccc(Cl)c21 (stereo unspecified) | 106 to 108 °C
53 | CCOc1nc(C(=O)O)ccc1C#N | 185 to 190 °C
54 | Cn1cc(-c2ccc3c(ccn3-c3ccc(F)cc3)c2)cn1 | 144 to 145 °C
55 | O=C(O)COc1cccc2c1CCC(n1nc(-c3c(-c4ccccc4)nn4ccccc34)ccc1=O)C2=O (stereo unspecified) | 225 to 227 °C
56 | CCOC(=O)c1c(CCCn2cncn2)nc2sc3c(c2c1-c1ccc(OC)c(OC)c1)CCN(C(=O)c1ccc(Cl)cc1)C3 | 114 to 116 °C
57 | COC(=O)NC1=NCC(c2cccc(OC)c2)CN1 (stereo unspecified) | 218 to 221 °C
58 | CCCCS(=O)(=O)NC1Cc2ccc(C3=NNC(=O)CC3)cc2C1 (single isomer, unassigned; (+)) | 173 to 174 °C
59 | COc1ccccc1-c1cccc2nc(Nc3cc(OC)c(OC)c(OC)c3)oc12 | 185 to 187 °C
60 | Brc1cc(C=Cc2scc3c2OCCO3)ccn1 | 127 to 129 °C
61 | COc1ccccc1N1CCN(CC2(C)N=C(c3ccccc3)NC2=O)CC1 (stereo unspecified) | 86 to 89 °C
62 | Cc1cc(N2CCN(CCc3ccccc3)C2=O)sc1C(=O)NCc1cccnc1 | 95 to 97 °C
63 | CC1(C)CCC(C)(C)c2cc(-c3cn(-c4ccc(C(=O)O)cc4)c(S)n3)ccc21 | 170 to 172 °C
64 | CCOC(=O)c1c(C(C)(C)O)nc(CO)n1Cc1ccc(-c2ccccc2-c2nnnn2C(c2ccccc2)(c2ccccc2)c2ccccc2)cc1 | 151 to 152 °C

Next, values leading:

Row | melting point | SMILES
65 | 86 to 88 °C | COC(=O)c1ccc(CC#N)cc1S(=O)(=O)NC(C)(C)C
66 | 110 to 112 °C | c1ccc(COc2ccc(Nc3ccccn3)cc2)cc1
67 | 70 to 72 °C | O=C(C(=O)c1ccc(C(F)(F)F)cc1)c1ccncc1
68 | 70 to 71 °C | CCOC(=O)Cc1ccc(C(=O)c2ccc(C)cc2)n1C
69 | 270 to 271 °C | O=C(Nc1cccnc1)N1CCN(c2nccc(-c3cc(F)ccc3F)n2)CC1
70 | 112 to 113 °C | CCO/C(=C(/Oc1ccc(-c2ccc(Cl)cc2)cc1)n1ccnc1)C(C)(C)C
71 | 217 °C | Cc1nc(NC(=O)c2cnn3c(C(F)F)cc(-c4ccc(C(F)(F)F)cc4)nc23)sc1S(=O)(=O)NC(CO)CO
72 | 173 °C | COc1cccc(C(=O)N(C)Cc2cccc(-c3ccc(CC4SC(=O)NC4=O)cc3)c2)c1 (stereo unspecified)
73 | 56 to 57 °C | COC(=O)c1c(C)nc(CC(C)C)c(CN)c1-c1ccc(C)cc1
74 | 80 °C | CC(CN1CCCC1)N1c2ccccc2Sc2ccc(C(=O)NCc3cccc(Cl)c3)cc21 (racemic)
75 | 165 to 167 °C | COc1ccc(-c2ccc(C(=O)Nc3ccc4cc(CN5CCCCCC5)cnc4c3C)cc2)cc1
76 | 208 to 210 °C | CN(C)S(=O)(=O)c1cccc2c1Sc1ccc(O)cc1N2
77 | 156 to 158 °C | CCc1ccc(NC(=N)c2ccc(SC)cc2)cc1
78 | 149 to 151 °C | COc1ccc(-c2nnn(-c3ccc(Cl)cc3Cl)c2N)cc1
79 | 158 to 160 °C | COc1ccc(C(=O)NCC(O)CC(=O)O)cc1OCc1ccccc1 (stereo unspecified)
80 | 243 to 245 °C | COc1cccc(OC)c1Cn1cnc2ccc(O)cc2c1=O

Row | melting point | SMILES
81 | 121 to 123 °C | CC(C)N(C(=O)n1oc(=O)n(C)c1=O)c1ccc(Cl)cc1
82 | 74 to 75.5 °C | CCN(C=C1C(=O)N(c2cccc(Cl)c2)c2ccccc21)CC
83 | 98 to 99 °C | O=C(c1ccc(Cl)cc1)C(Cc1ccc(Cl)cc1)c1cccnc1 (stereo unspecified)
84 | 75 to 76.5 °C | CCOC(=O)c1cc(CC)sc1Nc1ccc(Cl)cc1[N+](=O)[O-]
85 | 300 °C | COc1ccc2cc(-c3nc(-c4ccncc4)no3)c(=O)oc2c1
86 | 146 to 148 °C | COC(=O)CCc1ccc(C(=O)O)cc1
87 | 113 to 116 °C | Nc1ccccc1NS(=O)(=O)c1cc(C(=O)O)cc(NCc2ccccc2)c1Oc1ccccc1
88 | 105 °C | O=c1cc(-c2cccc(Cl)c2)c2cc(Br)ccc2[nH]1
89 | 190 to 205 °C | CCCNCc1ccc(-c2cc3ncnc(Nc4ccc5[nH]ccc5c4)c3s2)cc1
90 | 101 to 103 °C | COc1cccc(C(=O)c2sc3cc(OC)ccc3c2-c2ccccc2)c1
91 | > 200 °C | C[C@@](N)(Cc1ccc(OC(F)(F)F)cc1)C(=O)Nc1cc(Cl)cc(Cl)c1
92 | 264 to 265 °C | Cc1nc(NC(=O)C2=C(O)c3ccc4ccccc4c3S(=O)(=O)N2C)sc1C
93 | 89 to 91 °C | COC(=O)c1ccc(C=CC(=O)c2ccc3c(c2)C(C)(C)CCC3(C)C)cc1
94 | 215 to 220 °C | O=C(NO)c1cnc(NS(=O)(=O)c2ccc(C(=O)Nc3ccc(Cl)c(-c4ccccn4)c3)c(Cl)c2)nc1
95 | 295 °C | COC(=O)C1=C(C)Nc2cc[nH]c(=O)c2C1c1ccccc1C(F)(F)F (stereo unspecified)
96 | 168 to 169 °C | CCN(c1ccc(OC)cc1)S(=O)(=O)c1cccc(C(=O)Nc2ccc(C#N)cc2)c1
